Experimental data as given in US6589950B1, “Purine derivatives inhibitors of tyrosine protein kinase SYK” (Novartis AG, priority 1999, dated 2003).
Structures can show the parent of a compound that is named as a salt.

Target: syk kinase (Homo sapiens, UniProt P43405)
Assay: syk kinase peptide phosphorylation scintillation proximity assay (SPA)
Format: biochemical
Conditions: biotin-EDPDYEWPSA substrate, 33P-ATP, SPA beads, room temperature 30 minutes; read-out: IC50 (concentration at which 50% inhibition of syk kinase phosphorylation occurs)
Description: Compounds of formula I in free or salt form are useful as pharmaceuticals. Accordingly the invention also provides a compound of formula I in free or pharmaceutically acceptable salt form for use as a pharmaceutical. The compounds of formula I in free or pharmaceutically acceptable salt form, hereinafter referred to alternatively as “agents of the invention”, inhibit the activity of the tyrosine protein kinase syk, which is an activator of pro-inflammatory cells driving an allergic response.
In this assay the effect of an agent of the invention on the phosphorylation of a peptide by syk kinase is determined. The phosphate is transferred from the terminal phosphate of adenosine triphosphate (ATP) to the biotin-modified peptide biotin-EDPDYEWPSA (available from Genosys) which is a known specific substrate for syk. When ^33P-phosphorylated peptide binds to streptavidin-polyvinyltoluene (PVT) Scintillation Proximity Assay (SPA) beads (available from Amersham), the emitted β-particles excite the fluorophore in the beads and produce light.
To the wells of an Optiplate (Canberra Packard) are added (i) the compound under test in DMSO/distilled water (10 μl), (ii) 20 μl of a composition formed by mixing 1 mM biotin-EDPDYEWPSA (5.5 μl), 300 μM ATP (18.3 μl), and ^33P-ATP in sufficient amount to add 0.1 μCi ^33P-ATP per well (1.1 μl on the day of production) and making up the volume to 2.2 ml with a buffer (Buffer A) prepared by dissolving tris-base (0.36 g) in distilled water (80 ml), adjusting the pH to 7.5 with 1M hydrochloric acid, adding 1M aqueous MgCl2 (1.5 ml), 50 mM aqueous sodium orthovanadate (30 μl) and 1M aqueous dithiothrietol (150 μl), and making the volume up to 120 ml with distilled water, (iii) 0.5% w/v syk kinase in Buffer A (20 μl). The plate is incubated at room temperature for 30 minutes with shaking, the reaction is then terminated by addition to all wells of 150 μl of a mixture prepared by reconstituting 500 mg Streptavidin-PVT SPA beads in 373 ml of Tris-buffered saline containing 673.6 g cesium chloride, 20 ml 0.5M EDTA and 27.5 mg ATP (disodium salt) per litre. The plate is again incubated at room temperature for 30 minutes with shaking, then sealed using Top Seal-S (Canberra Packard) according to the manufacturer's instructions and left to stand at room temperature for 1 hour. The resulting scintillations are counted using a Packard TopCount, each well being counted for 1 minute.
The procedure is repeated for different concentrations of test compound selected to cover the range of 0% to 100% inhibition and the concentration at which 50% inhibition of syk kinase phosphorylation occurs (IC50) for each compound is determined from concentration-inhibition curves in a conventional manner.

SMILES | IC50 [nM]
CN1CCN(c2ccc(Nc3nc(NC4CC4)c4nc[nH]c4n3)cc2)CC1 [Example 102] | 5
CC(=O)N(C)c1ccc(Nc2nc(NC3CCC3)c3nc[nH]c3n2)cc1 [Example 6] | 10
CC(=O)N(C)c1ccc(Nc2nc(NC(C)(C)C)c3nc[nH]c3n2)cc1 [Example 138] | 14
CCN(C(C)=O)c1ccc(Nc2nc(NC(C)C)c3nc[nH]c3n2)cc1 [Example 170] | 10
CC(=O)N1CCN(c2ccc(Nc3nc(NC4CC4)c4nc[nH]c4n3)cc2)CC1 [Example 103] | 2
c1nc2c(NC3CC3)nc(Nc3ccc(N4CCOCC4)cc3)nc2[nH]1 [Example 5] | 9
CC(C)(C)OC(=O)Nc1ccc(Nc2nc(NC3CC3)c3nc[nH]c3n2)cc1 [Example 3] | 5
CC(=O)N1CCN(c2ccc(Nc3nc(NC4CCC4)c4nc[nH]c4n3)cc2)CC1 [Example 104] | 3.6

System: not given
Assay: not given
Conditions: not given

SMILES | melting point [°C]
CC(=O)N(C)c1ccc(Nc2nc(NC(C)(C)C)c3nc[nH]c3n2)cc1 [Example 138] | 273 to 274
c1ccc(Nc2nc(NC3CCC3)c3[nH]cnc3n2)cc1 [Example 121, 6-Cyclobutylamino-2-anilinopurine] | 312 to 314
c1nc2c(NC3CC3)nc(Nc3ccc(N4CCOCC4)cc3)nc2[nH]1 [Example 5] | 201.9 to 203.7
CC(=O)N(C)c1ccc(Nc2nc(NC3CCC3)c3nc[nH]c3n2)cc1 (as salt: HCl) [Example 6] | 314 to 318
